# Measured values published in patent US5281628A, “9-amino-7-(substituted)-6-demethyl-6-deoxytetracyclines” (American Cyanamid Company, priority 1991, dated 1994).
# Where a name gives a salt, the structure may show the parent alone.
# Columns and labels:
# Test in all cases: MIC, microtiter broth dilution
# Format in all cases: cell-based
# E. coli UBMS 89-1 (tetM) = conditions: Escherichia coli, 18 h
# Method in brief: (§1)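 Because these compounds oxidize readily, cysteine or dithiothreitol is included in the Mueller-Hinton II test broth. Organisms at 1-5×10^5 CFU/ml are exposed to drug at 32–0.004 μg/ml in microtiter wells.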
# [1] = system: E. faecalis AMV 120 (tetM); conditions: Enterococcus faecalis, 18 h
# Method in brief: as §1
# [2] = system: E. faecalis PAM 211 (tetN); conditions: Enterococcus faecalis, 18 h
# Method in brief: as §1
smiles,measurement,setting,value
"CN(C)c1ccc(O)c2c1C[C@H]1C[C@H]3[C@H](N(C)C)C(O)=C(C(N)=O)C(=O)[C@@]3(O)C(O)=C1C2=O [B, 7-(Dimethylamino)-6-demethyl-6-deoxytetracycline hydrochloride]",MIC,E. coli UBMS 89-1 (tetM),8 mg/L
same,MIC,[1],16 mg/L
same,MIC,[2],16 mg/L
